How the values were obtained:
mice = assay: Two-plate thermal preference test (30° C. vs 55° C.); type: in vivo; settings: for percentage of inactive time on the hot plate (55° C.): CD1 mice, CFA, vs naïve
Protocol: Responses to the two-plate thermal preference test were assessed under naïve conditions and 1 hour after administration of 0.2 mg/kg compound 1, 0.1 mg/kg morphine, or 0.2 mg/kg compound 1+0.1 mg/kg morphine. Unrestrained mice were exposed to plates set to normal and hot temperatures (30° C. and 55° C., respectively). Temperature preference was measured by percentage time spent on the hot plate (55° C.) over the course of 4 minutes, where 50% indicates no preference between the two temperatures. […] Error bars designate the standard error of the mean (n≥5).
Unrestrained mice were exposed to plates set to normal and hot temperatures (30° C. and 55° C., respectively) for 10 minutes. […] Error bars designate the standard error of the mean (n=4).
The percent inactivity on the 55° C. plate (mean±SEM) is a measure of heat tolerance. Significance was assessed by one-way ANOVA with LSD post-hoc test.

CD1 mice = assay: Hargreaves test under CFA-induced hyperalgesic conditions in CD1 mice; type: in vivo; settings: for response time for paw withdrawal compared to vehicle: 0.1 mg/kg, CD1 mice, CFA-induced hyperalgesic conditions
Protocol: Under CFA-induced hyperalgesic conditions, the maximum possible effect, % MPE=(response−baseline)/(cut-off time−baseline), was measured for the application of compound 1 alone (0.05 mg/kg, blue, n=12; 0.01 mg/kg, orange, n=4), morphine alone (0.1 mg/kg, green, n=8), and compound 1 with morphine at three different dosage combinations: 0.05 mg/kg compound 1 with 0.1 mg/kg morphine (light blue, n=6), 0.01 mg/kg compound 1 with 0.1 mg/kg morphine (pink, n=10), and 0.01 mg/kg compound 1 with 0.01 mg/kg morphine (red, n=4). […] Error bars designate the standard error of the mean.
0.05 mg/kg compound 1 was tested for tolerance in CFA-treated mice (red). Under CFA-induced hyperalgesic conditions (24 hours post-application of CFA), 0.05 mg/kg compound 1 was administered to CD1 mice and responses to the Hargreaves test were measured immediately after the initial injection (application time=0) and again after a repeated dose given 1.5 hours (FIG. 7A) or 24 hours (FIG. 7B) after the effects of the first dose wore off. The black circles represent the responses of naïve mice (i.e., no administration of compound 1 or CFA), and the red circles represent the responses of mice receiving compound 1 under CFA-induced hyperalgesic conditions. […] Error bars designate the standard error of the mean (n=4).
Responses of CD1 mice to the Hargreaves test were assessed after application of 0.1 mg/kg of the indicated compounds (black) or vehicle (white) under CFA-induced hyperalgesic conditions as shown in FIGS. 8A-8H. The assessed compounds were compounds 1 (8A), 2 (8B), 3 (8C), 4 (8D), 5 (8E), 6 (8F), 7 (8G), and 8 (8H). […] Error bars designate the standard error of the mean (n≥4).
Dose response curves from the Hargreaves test in mice with a CFA-inflamed left hind paw at 1.5 and 2 hr after intraperitoneal injection of compound 1. Percent Maximum Possible Effect (% MPE) was calculated from paw withdrawal latencies.
Tolerance to compound 1 (MJPY1) and compound 3 (MJPY2) was measured by repeated dosing in the Hargreaves Test. […] Mice (n=6/group) received repeated i.p. injections of vehicle or 0.1 mg/kg compound 1 (MJPY1) or compound 3 (MJPY2) once a day for 5 days. CFA inflammation was induced on day 4, and PWL was measured 0.5 hr before and every 10 min after treatment on day 5. Data were binned to 30-min blocks (mean±SEM).

[1] = 0.1 mg/kg i.p., 1 hour after injection
[2] = 0.1 mg/kg i.p., 48 hours after injection

Row | Structure (SMILES) | response time for paw withdrawal compared to vehicle (CD1 mice) | also measured
1 | CN(C)C(=O)c1cccc(CNC(=O)c2ccc3c4c(cccc24)CC3)c1 [compound 4, N-[[3-(dimethylcarbamoyl)-phenyl]methyl]-1,2-dihydroacenaphthylene-5-carboxamide] | increase in the response time | percentage of inactive time on the hot plate (55° C.) (mice; [1]): increase in the inactive time; percentage of inactive time on the hot plate (55° C.) (mice; [2]): no effect
2 | O=C1CN(C(=O)c2ccc(CNC(=O)c3ccc4c5c(cccc35)CC4)cc2)CCN1 [compound 6, N-{[4-(3-oxopiperazine-1-carbonyl)phenyl]methyl}-1,2-dihydroacenaphthylene-5-carboxamide] | increase in the response time | –
3 | NC(=O)CNC(=O)c1ccc(CNC(=O)c2ccc3c4c(cccc24)CC3)cc1 [compound 3, N-({4-[(carbamoylmethyl)-carbamoyl]phenyl}methyl)-1,2-dihydroacenaphthylene-5-carboxamide] | increase in the response time | percentage of inactive time on the hot plate (55° C.) (mice; [1]): significantly increased; percentage of inactive time on the hot plate (55° C.) (mice; [2]): significantly increased; analgesic action compared with morphine (percent inactivity on the 55° C. plate) (mice; 0.1 mg/kg i.p., male CD1 mice, 24 hr after CFA, 1 hr after treatment, same dose): better than morphine; tolerance after repeated dosing (PWL) (CD1 mice; 0.1 mg/kg i.p. once a day for 5 days, CFA on day 4): negligible tolerance
4 | O=C(NCc1ccc(C(=O)N2CCCCC2)cc1)c1ccc2c3c(cccc13)CC2 [compound 2, N-{[4-(piperidine-1-carbonyl)phenyl]methyl}-1,2-dihydroacenaphthylene-5-carboxamide] | increase in the response time | –
5 | CN1CC[C@]23c4c5ccc(O)c4O[C@H]2[C@@H](O)C=C[C@H]3[C@H]1C5 [morphine, reference compound] | – | percentage time spent on the hot plate (55° C.) compared to naïve mice (mice; normal nociception, 1 hour after 0.2 mg/kg compound 1, 0.1 mg/kg morphine, or both, 4 minutes): no significant analgesic response
6 | CCNC(=O)c1ccc(CNC(=O)c2ccc3c4c(cccc24)CC3)cc1 [compound 8, N-{[4-(ethylcarbamoyl)-phenyl]methyl}-1,2-dihydroacenaphthylene-5-carboxamide] | increase in the response time | –
7 | NC(=O)c1ccc(CNC(=O)c2ccc3c4c(cccc24)CC3)cc1 [compound 5, N-[(4-carbamoylphenyl)-methyl]-1,2-dihydroacenaphthylene-5-carboxamide] | increase in the response time | –
8 | CCN(Cc1ccc(C(=O)N(C)C)cc1)C(=O)c1ccc2c3c(cccc13)CC2 [compound 7, N-{[4-(dimethylcarbamoyl)-phenyl]methyl}-N-ethyl-1,2-dihydroacenaphthylene-5-carboxamide] | increase in the response time | –

Source: US12194033B2, “Glycine receptor modulators and methods of use” (University of Pittsburgh—Of the Commonwealth System of …, priority 2017, dated 2025)
